Values joined by “and” are separate entries in the source; they are usually repeats but may differ in a detail not shown here. Identical values can stand only once. Toxic doses and inconclusive results are not listed. No stated cut-off is given here; in the data, active means T/C of 150% or more; inactive means T/C below 125%.
Tested on: L1210 leukemia ip in BDF1 mice, survival T/C
Test: NCI In Vivo Anticancer Drug Screen. Data for tumor model L1210 Leukemia (intraperitoneal) in B6D2F1 (BDF1) mice
Settings: higher = longer survival
How it was run: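 Mice bearing the transplanted tumor received compound or vehicle. Survival of the treated group was divided by that of the vehicle-treated control group to give the ratio.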

[1] = endpoint: mean survival time, dose: 100.0 mg/kg/injection, schedule: Q04DX003 (ip), vehicle: saline
[2] = endpoint: mean survival time, dose: 200.0 mg/kg/injection, schedule: Q04DX003 (ip), vehicle: saline
[3] = endpoint: mean survival time, dose: 400.0 mg/kg/injection, schedule: Q04DX003 (ip), vehicle: saline
[4] = endpoint: mean survival time, dose: 100.0 mg/kg/injection, schedule: Q01DX009 (ip), vehicle: saline with Tween-80
[5] = endpoint: mean survival time, dose: 200.0 mg/kg/injection, schedule: Q01DX009 (ip), vehicle: saline with Tween-80
[6] = endpoint: mean survival time, dose: 400.0 mg/kg/injection, schedule: Q01DX009 (ip), vehicle: saline with Tween-80
[7] = endpoint: mean survival time, dose: 100.0 mg/kg/injection, schedule: Q04DX003 (ip), vehicle: saline with Tween-80
[8] = endpoint: mean survival time, dose: 100.0 mg/kg/injection, schedule: Q01DX001 (ip), vehicle: saline with Tween-80
[9] = endpoint: mean survival time, dose: 200.0 mg/kg/injection, schedule: Q01DX001 (ip), vehicle: saline with Tween-80
[10] = endpoint: mean survival time, dose: 400.0 mg/kg/injection, schedule: Q01DX001 (ip), vehicle: saline with Tween-80

Measured: T/C

NN1CCN(N)C(=O)C1=O
inactive: [1] 105 % of control | [2] 108 % of control | [3] 97 % of control

CCC(C)C(C)(CO)CO (stereo not drawn)
inactive: [4] 102 % of control | [1] 90 % of control | [5] 88 % of control | [2] 93 % of control | [6] 89 % of control | [3] 97 % of control

Clc1ccc(C(c2ccccc2Cl)C(Cl)Cl)cc1 (stereo not drawn)
inactive: endpoint: mean survival time, dose: 62.5 mg/kg/injection, schedule: Q01DX009 (sc), vehicle: steriod suspending solution 98 % of control and 101 % of control | endpoint: mean survival time, dose: 62.5 mg/kg/injection, schedule: Q01DX010 (sc), vehicle: saline 91 % of control | endpoint: mean survival time, dose: 62.5 mg/kg/injection, schedule: Q01DX010 (sc), vehicle: steriod suspending solution 102 % of control | endpoint: mean survival time, dose: 125.0 mg/kg/injection, schedule: Q01DX009 (sc), vehicle: steriod suspending solution 98 % of control and 103 % of control | endpoint: mean survival time, dose: 125.0 mg/kg/injection, schedule: Q01DX010 (sc), vehicle: saline 102 % of control | endpoint: mean survival time, dose: 125.0 mg/kg/injection, schedule: Q01DX010 (sc), vehicle: steriod suspending solution 98 % of control | endpoint: mean survival time, dose: 250.0 mg/kg/injection, schedule: Q01DX009 (sc), vehicle: steriod suspending solution 97 % of control and 100 % of control | endpoint: mean survival time, dose: 250.0 mg/kg/injection, schedule: Q01DX010 (sc), vehicle: saline 91 % of control | endpoint: mean survival time, dose: 250.0 mg/kg/injection, schedule: Q01DX010 (sc), vehicle: steriod suspending solution 102 % of control | endpoint: mean survival time, dose: 500.0 mg/kg/injection, schedule: Q01DX009 (sc), vehicle: steriod suspending solution 97 % of control and 101 % of control | endpoint: mean survival time, dose: 500.0 mg/kg/injection, schedule: Q01DX010 (sc), vehicle: saline 94 % of control | endpoint: mean survival time, dose: 500.0 mg/kg/injection, schedule: Q01DX010 (sc), vehicle: steriod suspending solution 98 % of control

CC1NC=NC1C(c1ccccc1)c1ccccc1 (stereo not drawn)
inactive: [7] 101 % of control

O=C(O)C1C2CCC1C(O)C2 (stereo not drawn)
inactive: [8] 107 % of control | [9] 94 % of control | [10] 97 % of control

CC[C@H]1CN2CCc3cc(OC)c(OC)cc3[C@@H]2C[C@@H]1C[C@H]1NCCc2c1[nH]c1ccc(OC)cc21
active: endpoint: mean survival time, dose: 32.0 mg/kg/injection, schedule: Q04DX003 (ip), vehicle: saline 152 % of control
inactive: endpoint: mean survival time, dose: 0.5 mg/kg/injection, schedule: Q01DX009 (ip), vehicle: saline 103 % of control | endpoint: mean survival time, dose: 1.0 mg/kg/injection, schedule: Q01DX009 (ip), vehicle: saline 105 % of control | endpoint: mean survival time, dose: 2.0 mg/kg/injection, schedule: Q01DX005 (ip), vehicle: saline 113 % of control | endpoint: mean survival time, dose: 2.0 mg/kg/injection, schedule: Q01DX009 (ip), vehicle: saline 107 % of control | endpoint: mean survival time, dose: 2.0 mg/kg/injection, schedule: Q04DX003 (ip), vehicle: saline 115 % of control | endpoint: mean survival time, dose: 4.0 mg/kg/injection, schedule: Q01DX005 (ip), vehicle: saline 117 % of control | endpoint: mean survival time, dose: 4.0 mg/kg/injection, schedule: Q01DX009 (ip), vehicle: saline 114 % of control | endpoint: mean survival time, dose: 4.0 mg/kg/injection, schedule: Q04DX003 (ip), vehicle: saline 123 % of control | endpoint: mean survival time, dose: 8.0 mg/kg/injection, schedule: Q04DX003 (ip), vehicle: saline 109 % of control | endpoint: mean survival time, dose: 16.0 mg/kg/injection, schedule: Q01DX009 (ip), vehicle: saline 117 % of control | endpoint: mean survival time, dose: 16.0 mg/kg/injection, schedule: Q04DX003 (ip), vehicle: saline 124 % of control | endpoint: median survival time, dose: 4.0 mg/kg/injection, schedule: Q04DX003 (ip), vehicle: saline + alcohol 101 % of control | endpoint: median survival time, dose: 8.0 mg/kg/injection, schedule: Q04DX003 (ip), vehicle: saline + alcohol 104 % of control | endpoint: median survival time, dose: 16.0 mg/kg/injection, schedule: Q04DX003 (ip), vehicle: saline + alcohol 117 % of control | endpoint: median survival time, dose: 64.0 mg/kg/injection, schedule: Q04DX003 (ip), vehicle: saline + alcohol 86 % of control

Cc1c(Cl)cccc1NC(=O)OCCCc1ccccc1
inactive: [8] 93 % of control | [4] 101 % of control and 104 % of control | endpoint: mean survival time, dose: 100.0 mg/kg/injection, schedule: Q04DX002 (ip), vehicle: saline with Tween-80 96 % of control and 108 % of control | [7] 102 % of control | [9] 93 % of control | [5] 93 % of control and 96 % of control | endpoint: mean survival time, dose: 200.0 mg/kg/injection, schedule: Q04DX002 (ip), vehicle: saline with Tween-80 108 % of control and 121 % of control | endpoint: mean survival time, dose: 200.0 mg/kg/injection, schedule: Q04DX003 (ip), vehicle: saline with Tween-80 89 % of control | [10] 90 % of control | [6] 98 % of control and 90 % of control | endpoint: mean survival time, dose: 400.0 mg/kg/injection, schedule: Q04DX002 (ip), vehicle: saline with Tween-80 97 % of control and 101 % of control | endpoint: mean survival time, dose: 400.0 mg/kg/injection, schedule: Q04DX003 (ip), vehicle: saline with Tween-80 91 % of control

From PubChem BioAssay AID248 (DTP/NCI, 2004)
